According to patent publication US8729034B2, “Pharmaceutical composition having virucidal and spermicidal activity” (priority 2007, dated 2014):
Values joined by “and” are separate entries in the source; they are usually repeats but may differ in a detail not shown here. Identical values can stand only once.

What was measured:
[1] = system: human spermatozoa; experiment: Sander & Cramer spermicidal assay (in vitro); type: cell-based
Experimental: The exudates/liquefied human semen samples were suspended in BWW medium (pre equilibrated at 37 degree C.). The spermatozoa with forward motility were separated from immotile or sluggishly motile cells by the swim-up technique and were allowed to disperse evenly within a CO2 incubator at 37 degree C. At least five aliquots from each sample was used to prepare the working spermatozoa suspension. The swim up procedure was as follows:
Pre equilibrated BWW medium (1.25 ml) was gently layered over cauda-exudates or liquefied human semen (1 ml) in a sterile 15 ml conical-based centrifuge tube. The tube was inclined at an angle of 45 degree and incubated for 1 hour at 37 degree C. in a CO2-incubator. It was then gently returned to the upright position and the uppermost 1 ml medium with a turbid appearance was removed. This aliquot of motile cells was pooled from each set, then diluted with same volumes of pre equilibrated BWW medium, centrifuged at 500 g for 5 minutes and finally resuspended in 1 ml pre equilibrated BWW medium to obtain a working suspension. The sperm cells were counted in a Makler chamber (Zygotec Systems, Springfield, M A, USA) and finally a working spermatozoa suspension having concentration of 25 to 30×10^6 cells/ml was prepared.
For in vitro assay of spermicidal effect, sperms collected from proven male rats and mice, and motile spermatozoa from liquefied human semen were used.
The assay was done following the Sander & Cramer assay method. Two hundred micro liter (200 microliters) of working spermatozoa suspension was added to 1 ml solution of test material in BWW medium and mixed on a light vortex for 10 seconds. A wet mount was immediately prepared on a clean microscopy glass slide and examined (at ×100) under a phase contrast microscope (Leitz, Biomed). The weakest concentration that immobilized all spermatozoa within 20 seconds of mixing was recorded as MEC. At least five fields were examined for each wet mount preparation. The observation was repeated with five individual spermatozoa suspension for each concentration of test compound solution. For negative control, saponin solutions were replaced by equal volume of BWW medium, while Nonoxynol 9 was used as positive control.

[2] = system: human sperm; experiment: Live/dead staining (SYBR-14 / propidium iodide) of treated sperm; type: cell-based
Experimental: Live/dead staining kit (Invitrogen: Paisley, UK), using SYBR-14 in combination with propidium iodide (PI) was used for the purpose.
The SYBR-14 was prepared in anhydrous methyl sulfoxide (DMSO) at a concentration of 1 mg/ml. A working solution of SYBR-14 diluted 1:10 with DMSO was used for staining the sperm. The PI was dissolved in Tyrode's salt solution at 2 mg/ml.
The human sperm samples, pre-treated without (control) or with Ac-B (experimental) and Nonoxynol 9 (positive control) were incubated for 15 min at 36 degree C. before examination. […] The fluorescent staining of sperm was monitored and photographed with a Zeiss Axiophot epifluorescent microscope (Carl Zeiss Inc., Thornwood, N.Y.) equipped with a fluorescein isothiocyanate filter set (Zeiss #487909).
Viability of Ac-B-treated human spermatozoa was evaluated using a dual fluorescent live/dead staining kit (Invitrogen; Paisley, UK) consisting of SYBR 14 and propidium iodide (PI). PI cannot penetrate living cells but can bind to and stain cellular DNA in damaged cells giving them red fluorescence. On completion of staining reaction, proportionate distribution of green (live) and red (dead) stained spermatozoa was recorded using dual emission filter for SYBR14 and propidium iodide. In the control set all sperms were stained green but the Ac-B-treated spermatozoa (125 mcg/ml) were stained red.

[3] = system: human sperm; experiment: Electron microscopy of treated sperm (TEM/SEM); type: cell-based; conditions: Ac-B-treated human sperm
Experimental: For electron microscopy, the suspending medium was replaced with 0.1M phosphate buffer (pH 7.0). A concentrated untreated (control) and Ac-B-treated (experimental) human sperm suspension were mixed with 2% glutaraldehyde in phosphate buffer for fixation at 4 degree C. for 4 hours. After three successive washings in buffer at room temperature, post-fixation was done by 1% osmium tetroxide. Thirty minutes after post-fixation, the spermatozoa were quickly washed with phosphate buffer and end block staining was done by saturated urenyl acetate solution. Dehydration of the fixed spermatozoa was done in graded (50%, 70%, 90% and 100%) ethyl alcohol. A portion of each set of dehydrated sperms were embedded in spur and blocks were prepared for ultra-thin sectioning. Ultra-thin sections were prepared in LKB Ultramicrotome using a diamond knife. Finally the thin sections were stained with urenyl acetate and freshly prepared lead citrate. The stained sections were thoroughly examined under TECHNI G2 BIOTWEEN transmission electron microscope (at ×25000). The rest of the dehydrated sperm sets were prepared for examination under tescan scanning electron microscope.

[4] = system: Candida albicans; experiment: Effect on in vitro culture of Candida albicans for 24 hours; type: cell-based; conditions: Ac-B 125 microgram per ml; PD agar
Experimental: Candida albicans spores were grown in vitro on Potato dextrose [PD] agar plates without (control) and with Ac-B at a concentration of 125 microgram per ml.

[5] = system: Salmonella typhimurium TA100; experiment: Bacterial reverse mutation assay (MUTA-CHROMOPLATE kit)
Source text: Ac-B was examined for its ability to produce mutations/revert mutations in a bacterial reverse mutation assay using amino acid-requiring strain of Salmonella typhimurium (S. typhimurium) TA100 and the result was compared with a known mutagen (Na-azide). A commercial kit (The MUTA-CHROMOPLATE) from M/s Environmental Biodetection Products Inc. Ontario, Canada, was used. Suspensions of bacterial cells were exposed to the test substance in the presence and in the absence of an exogenous metabolic activation system. After 5 days of incubation, revertant colonies were detected by the change of colour from blue to yellow on solvent control plates. All yellow, partially yellow or turbid wells were scored as positive, while all purple wells were scored as negative. Number of positive wells for each plate was recorded, their number was counted and compared to that of spontaneous revertant colonies. The “Background” (i.e. no test material added) plate was used as reference for the level of spontaneous or background mutation of the assay organism. The statistical difference was determined using a table provided with the kit.
Score of mutagenicity as per the set criteria of Muta-Chromoplate test kit.

Acaciaside-B [Ac-B]
MEC as per Sander and Cramer Test ([1]; Human spermatozoa (N = 5), weakest concentration immobilizing all spermatozoa within 20 seconds): 125 microgram per ml and 125 (±7) microgram per ml
EC50 for spermicidal activity in vitro ([1]; human sperm): 22 microgram per ml
MEC for spermicidal action ([1]; human sperm): 125 microgram
MEC for spermicidal activity ([1]; human sperm): 125 micro g/ml
MEC, spermicidal ([1]; human sperm): 125 µg/mL
Live/dead staining colour of treated spermatozoa ([2]; Ac-B 125 mcg/ml, green = live, red = dead): stained red
Percentage of dead spermatozoa, Live/dead staining ([2]; human sperm pre-treated with Ac-B): 92 (±5)%
Electron microscopic finding on plasma membrane (TEM) [3]: vesiculization/vacuolization of the plasma membrane leading to its disintegration
Number of Candida albicans colonies, presence vs absence of Ac-B [4]: no significant difference
Sizes of individual Candida albicans colonies [4]: comparatively smaller
Overall mutagenicity result ([5]; Ames Test): non-mutagenic
No. of '+' wells (Muta-Chromoplate score) ([5]; Background = 20, Blank = 0): 18
